{"source": "paper PMC4501119", "about": "“Cholestenoic acid, an endogenous cholesterol metabolite, is a potent γ-secretase modulator” (Molecular Neurodegeneration, 2015)", "key": {"[1]": {"test_system": "Aβ42 in CHO-2B7 cells (CHO cells stably overexpressing APP695)", "test": "Cell-based Aβ sandwich ELISA of conditioned media from CHO-2B7 cells treated 16 h", "parameters": "species or system Chinese hamster", "description": "Chinese hamster ovary (CHO) cells stably overexpressing APP695 (CHO-2B7 cells) were grown in Ham’s F-12 medium (Life Technologies) supplemented with 10 % fetal bovine serum and 100 units/ml of penicillin and 100 μg/ml streptomycin. Cells were grown at 37 °C in a humidified atmosphere containing 5 % CO2 in tissue culture plates (Costar). The cells were harvested at confluence and then utilized for biochemical analyses. Compounds were dissolved in dimethyl sulfoxide (DMSO) and screened in CHO-2B7 cells. The cells were incubated for 16 h in the presence of the compound diluted into OptiMEM-reduced serum medium (Life Technologies, Carlsbad, CA, USA) containing 1 % fetal bovine serum.\nMonoclonal antibodies to Aβ were generated by the Mayo Clinic Immunology Core facilities (Jacksonville, FL, USA). Ab5 recognizes an epitope in the amino terminus of Aβ (Aβ1-16), recognizes both monomeric and aggregated Aβ, and is human specific. […] Ab 2.1.3 was raised against Aβ35-42 and is specific for Aβx-42. […] Total Aβ level was determined by capture with Ab5 and detected with horseradish peroxidase (HRP)-conjugated 4G8 (a monoclonal antibody against Aβ17-24; Covance, Waltham, MA, USA) with the other Aβ peptides detected with HRP-conjugated Ab5. For the cell-free assay and measuring mouse endogenous Aβ, HRP-conjugated 4G8 was used as the secondary detection antibody. Aβ standards (Bachem, King of Prussia, PA, USA) were prepared by dissolving in hexafluoroisopropanol (HFIP) at 1 mg/ml with sonication, dried under nitrogen, resuspended at 2 mg/ml HFIP, sonicated again and dried under nitrogen. The resulting Aβ was resuspended in 0.01 % ammonium hydroxide, portioned into aliquots in EC buffer, and frozen at −80 °C."}, "γ-secretase": {"molecular_target": "T1, γ-secretase (Homo sapiens, UniProt P49768)", "T1 construct": "The membrane derived from the H4 neuroglioma cells overexpressing APP695wt were prepared by carbonate extraction; endogenous in cells; host or cells: H4 neuroglioma cells overexpressing APP695wt (membranes, carbonate extraction)", "test": "In vitro γ-secretase assay with recombinant C100Flag and CHO S-1 membrane, Aβ and AICD spectra by MALDI-TOF", "type": "biochemical", "details": "20 μM", "description": "Broken cell assays were performed with slight modifications from the previous studies. The membrane derived from the H4 neuroglioma cells overexpressing APP695wt were prepared by carbonate extraction and incubated at 37 °C for 2 h with CA at various concentrations. Aβ levels were quantified by sandwich ELISAs. For Aβ and AICD spectra, the recombinant C100Flag proteins were overexpressed and purified from Escherichia coli BL21 using a HiTrap Q-column (GE Life Science, Little Chalfont, U.K.). The membrane containing γ-secretase was isolated from the CHO S-1 cell line using sodium carbonate (100 mM, pH 11.0). For the in vitro γ-secretase assay, C100Flag recombinant protein at 25 μM was incubated with the membrane (100 μg/mL) in the presence of CA (20 μM) and DMSO in 150 mM sodium citrate buffer (pH 6.8) containing complete protease inhibitor (Roche, Indianapolis, IN) for 2 h at 37 °C.\nConditioned media from the CHO-2B7 cells and the samples prepared from in vitro γ-secretase studies were used to analyze Aβ and AICD profiles using matrix-assisted laser desorption/ionization time of flight (MALDI-TOF) mass spectrometry analysis. The secreted Aβ peptides were analyzed as previously described with the following modifications. […] Samples were analyzed using a Bruker Microflex LRF-MALDI-TOF mass spectrometer."}, "[2]": {"parameters": "method as in PMID 10428977", "details": "in humans; cited from earlier work"}, "[3]": {"test_system": "primary mouse motor neuron", "parameters": "method as in PMID 25271621", "details": "cited from earlier work"}, "[4]": {"details": "CHO-2B7 cells, dose response, ELISA"}}, "note": "pEC50: −log10 of the molar value."}
{"smiles": "CC(CCC[C@@H](C)C(=O)O)[C@H]1CCC2C3CC=C4C[C@@H](O)CC[C@]4(C)C3CC[C@@]21C", "note": "(stereo partly drawn) [Cmpd 2a, 25(R)-cholestenoic acid]", "values": [{"measurement": "Aβ38 level", "setting": "[1]; [4]", "value": "increased"}, {"measurement": "total Aβ level", "setting": "[1]; [4]", "value": "without alterations"}, {"measurement": "pEC50", "setting": "[1]; Cricetulus griseus, CHO-2B7, 16 h, lowering Aβ42, CHO-2B7 cells, 16 h, ELISA", "value": "~6.60"}, {"measurement": "EC90", "setting": "[1]; Cricetulus griseus, decreasing Aβ42, CHO-2B7 cells", "value": 3000, "unit": "nM"}, {"measurement": "ε-site utilizations (AICD49-99 and AICD50-99)", "setting": "γ-secretase; vs DMSO control", "value": "did not affect"}, {"measurement": "Aβ spectra (MALDI-TOF)", "setting": "γ-secretase; vs DMSO treated control", "value": "decrease Aβ42 peak and increase Aβ38 peak"}, {"measurement": "half-life (T1/2)", "setting": "[2]", "value": 1.5, "unit": "h"}, {"measurement": "toxicity to primary mouse motor neuron in cultures", "setting": "[3]", "value": "toxic"}]}
